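Method: 48-hour compound exposure of cells in 96-well plates, five concentrations, linear interpolation of endpoints. GI50 is the concentration that inhibits growth by half.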 Calls of active or inactive are those of the source. Cut-off read from the data, not from the text of the source: active = GI50 up to about 1.1 µM and inactive = higher.
Legend:
Assay in all cases: inhibition of tumour cell growth, NCI panel, 48 h
[1] = system: RXF 631
[2] = system: DMS-114
[3] = system: KM-20L2
[4] = system: XF498
[5] = system: HOP-18
[6] = system: DLD-1
[7] = system: SNB-78
[8] = system: LXFL 529
[9] = system: M19-MEL

Measured: GI50

CCCOC(=O)C1C(c2ccc(OC)cc2)NC(c2ccc(OC)cc2)C(C(=O)OCCC)S1(=O)=O (centres undefined)
inactive: [1] > 10 µM | [2] > 10 µM | [3] > 10 µM | [4] 9.18 µM | [5] > 10 µM | [6] > 10 µM | [7] > 10 µM | [8] > 10 µM

O=c1nc2occc2cn1C1CC(O)C(CO)O1 (centres undefined)
inactive: [1] > 100 µM | [2] > 100 µM | [9] > 100 µM | [3] > 100 µM | [4] > 100 µM | [5] > 100 µM | [6] > 100 µM | [7] > 100 µM | [8] > 100 µM

Cc1ccc(C)c(NC(=O)C(=O)C2C(=O)N(c3ccccc3)N=C2N)c1 (centres undefined)
inactive: [1] > 100 µM | [9] > 100 µM | [3] > 100 µM | [4] > 100 µM | [5] > 100 µM | [6] > 100 µM | [7] > 100 µM | [8] > 100 µM

COc1cc2c(OC)cc1CSCc1sc(C)c(c1Br)CSC2
inactive: [1] > 100 µM | [2] > 100 µM | [9] > 100 µM | [3] > 100 µM | [4] > 100 µM | [5] > 100 µM | [6] > 100 µM | [7] > 100 µM | [8] > 100 µM
